{"source": "patent US5821084A", "about": "“Osteoblast-testicular protein tyrosine phosphatase” (The Regents of the University of Michigan, priority 1994, dated 1998)", "key": {"OST-PTP mRNA": {"system": "OST-PTP mRNA", "assay_type": "cell-based, rat", "source_text": "Poly A^+ RNA was extracted from an array of adult rat tissues: uterus, ovary, testis, kidney, heart, liver, lung, spleen, brain, skeletal muscle, smooth muscle, pancreas and retina. Poly A^+ RNA derived from UMR106 was used as a standard to control for expression in bone. […] RNA fractionated in such gels was transferred to Magnagraph nylon membrane (MSI) in 20× SSC by capillary action method. Two different types of probe; riboprobe (RNA) or random primed cDNA probe, were used depending on the experiment. […] All DNA probes were labeled with ^32 P-a (3000 Ci/mM) by the Random Primers DNA labeling kit using manufacturer's recommended conditions (GibcoBRL Life Technologies). […] For hybridizations, 10^6 cpms/ml probe was added. Following hybridization, the blots were washed twice at room temperature in 1× SSC+0.1% SDS (30 minutes per wash), and then washed twice in 0.1× SSC+0.1% SDS (30 minutes per wash) once at room temperature and once at 68° C. The prehybridization/hybridization conditions for the DNA probes were the same as described above except the temperature was lowered to 43° C. […] The washes were done as described above. The results were visualized either by autoradiography or by scanning with a phosphorimager (Molecular Dynamics). All quantifications were normalized against the amount of cyclophilin message which was considered to be standard for any given conditions.\nParathyroid hormone is an important bone hormone. […] The UMR106 cells were cultured as described above until confluence. The cells were then washed twice in phosphate buffered saline followed by incubation for 5 hours at 37° C. in serum free DMEM. After serum deprivation, 100 nM parathyroid hormone (PTH) was added to the cultures and incubation continued for 4, 8, 12, and 16 hours at 37° C. RNA was then isolated from the cells as described above."}, "[1]": {"system": "other two novel PTPase clones", "test": "Northern blot of other novel PTPase clones in PTH-treated UMR106 cells", "assay_type": "cell-based, rat", "conditions": "PTH treatment", "method": "RNA was analyzed by Northern blot hybridization to determine the tissue specificity of the OST-PTP clone. Poly A^+ RNA was extracted from an array of adult rat tissues: uterus, ovary, testis, kidney, heart, liver, lung, spleen, brain, skeletal muscle, smooth muscle, pancreas and retina. Poly A^+ RNA derived from UMR106 was used as a standard to control for expression in bone. The RNA preparations were quantitated by absorbance at 260 nm and, depending on the message abundance, either total cellular RNA or poly A+ RNA was electrophoretically separated in a 6.6% formaldehyde-1%agarose gel. RNA fractionated in such gels was transferred to Magnagraph nylon membrane (MSI) in 20× SSC by capillary action method. Two different types of probe; riboprobe (RNA) or random primed cDNA probe, were used depending on the experiment. The riboprobe used for hybridization corresponded to the extracellular domain of OST-PTP, and was labeled by in vitro transcription using ^32 P-a (3000 Ci/mM) as described by manufacturers (Promega). […] All quantifications were normalized against the amount of cyclophilin message which was considered to be standard for any given conditions. […]"}, "UMR106 cells": {"system": "UMR106 cells", "conditions": "cited from earlier work"}}}
{"substance": "parathyroid hormone [PTH]", "values": [{"measurement": "change of OST-PTP message at later time points", "setting": "OST-PTP mRNA; UMR106 cells, 100 nM PTH, later than 4 hours (8, 12, 16 hours)", "value": "further increases"}, {"measurement": "PTH concentration effective in increasing OST-PTP transcripts", "setting": "OST-PTP mRNA; UMR106 cells, 18 hours", "value": 1, "unit": "nM"}, {"measurement": "effect on OST-PTP transcripts of exposure for less than 4 hours", "setting": "OST-PTP mRNA; UMR106 cells, regardless of concentration (10 pM-100 nM)", "value": "no significant effect"}, {"measurement": "increase of PTP-OST (OST-PTP) message", "setting": "OST-PTP mRNA; umr106 cells, 4 h, 0.1 µM", "value": "≤ 5", "unit": "fold"}, {"measurement": "effect of PTH on the other two novel PTPase clones", "setting": "[1]", "value": "Neither of the other two novel PTPase clones were altered"}, {"measurement": "effect on cell proliferation and DNA synthesis", "setting": "UMR106 cells", "value": "inhibit cell proliferation, and DNA synthesis"}]}
